Measurements: patent publication US11041000B2, “Peptide inhibitors of interleukin-23 receptor and their use to treat inflammatory diseases” (priority 2019, dated 2021)
Numbered stars: 1 amine (or outer) side, 2 acyl side, 3 side chain; on linkers, the order of the positions; unused ones are H or OH. Bridge positions count the residues as written; N and C are the ends. Square brackets hold non-standard residues; d marks the D form. Peptide text beside a SMILES is read from it. Trp(7-OMe) = COc1cccc2c(C[C@H](N)C(=O)O)c[nH]c12; His(π-Bom) = N[C@@H](Cc1cncn1COCc1ccccc1)C(=O)O; Trp(7-Me) = Cc1cccc2c(C[C@H](N)C(=O)O)c[nH]c12; Abu(4-yl) = O=C([C@H](CC[*:3])N[*:1])[*:2]; 2Nal = N[C@@H](Cc1ccc2ccccc2c1)C(=O)O; AEF = NCCOc1ccc(C[C@H](N)C(=O)O)cc1; Cit = NC(=O)NCCC[C@H](N)C(=O)O; αMeL = CC(C)C[C@](C)(N)C(=O)O; Pen = CC(C)(S)[C@H](N)C(=O)O; hLeu = CC(C)CC[C@H](N)C(=O)O; αMeK = C[C@](N)(CCCCN)C(=O)O; βAla = NCCC(=O)O

Tests used:
Stability in rat plasma = type: in vitro ADME; details: both sexes, SD rat plasma, EDTA, 37° C., read-out: t½: Rat Plasma EDTA (converted)
[1] = Stability in simulated intestinal fluid (SIF); type: in vitro ADME; details: simulated intestinal fluid with pancreatin, pH 6.8, 37° C., matrix is 100 fold dilution of standard SIF concentration; for SIF t½: 20 μM
[2] = Stability in cynomolgus monkey fecal homogenate; type: in vitro ADME; details: 20% fecal homogenate (supernatant), anaerobic, pH 6.8, 20% cynomolgus monkey fecal homogenate, 37° C., read-out: t½: Monkey Feces anaerobic (converted)
Description: (§1) Centrifuged the homogenate at 2800×g for 15 min. The supernatant is taken out and used for incubations. […] The final test compound concentration was 20 μM.

[3] = biological target: IL-23R-expressing DB cells (Homo sapiens, UniProt Q5VWK5); assay: DB cells IL23R pSTAT3 cell assay (pStat3HTRF); type: cell-based; details: DB cells stimulated with IL-23 0.5 nM, 30 minutes, phospho-STAT3 in cell lysates; read-out: pStat3 HTRF
Text: Human ELISA indicates the IL23-IL23R competitive binding assay described below, Rat ELISA indicates the rat IL-23R competitive binding ELISA assay described below, and pStat3HTRF indicates the DB cells IL-23R pSTAT3 cell assay described below. The peptides depicted in Table E1 are cyclized via a disulfide bridge formed between two Pen residues in these peptides. The peptides depicted in Table E2 are cyclized via a thioether bond between the indicated amino acid residues. Table E2 provides an illustrative structure depicting thioether cyclization, which is indicated in the table by the term “cyclo,” with the cyclic region bracketed immediately following the term “cyclo.” For certain peptides, the residue Abu is present where indicated, whereas in other embodiments, e.g., those related to the non-cyclized form, the Abu may be referred to as a hSer(Cl) or homoSer residue. The petpides depicted in Table E3 are cyclized via a disulfide bridge formed between two Pen residues or a thioether bond between Abu and Cys.
IL-23 plays a central role in supporting and maintaining Th17 differentiation in vivo. This process is thought to be mediated primarily through the Signal Transducer and Activator of Transcription 3 (STAT3), with phosphorylation of STAT3 (to yield pSTAT3) leading to upregulation of RORC and pro-inflammatory IL-17. This cell assay examines the levels of pSTAT3 in IL-23R-expressing DB cells when stimulated with IL-23 in the presence of test compounds. Serial dilutions of test peptides and IL-23 (Humanzyme #HZ-1261) at a final concentration of 0.5 nM, were added to each well in a 96 well tissue culture plate (Corning #CLS3894). DB cells (ATCC #CRL-2289), cultured in RPMI-1640 medium (Thermo Scientific #11875093) supplemented with 10% FBS, were added at 5×10E5 cells/well and incubated for 30 minutes at 37° C. in a 5% CO2 humidified incubator. Changes in phospho-STAT3 levels in the cell lysates were detected using the Cisbio HTRF pSTAT3 (Tyr705) Cellular Assay Kit (Cisbio #62AT3PEH), according to manufacturer's Two Plate Assay protocol.

[4] = Stability in human fecal homogenate; type: in vitro ADME; details: 20% fecal homogenate (supernatant), pH 6.8, 20% human fecal homogenate, anaerobic, 37° C., read-out: t½: Human Feces anaerobic (converted)
Description: as §1

Chain of IL-23R-expressing DB cells (Q5VWK5 24-629 limits assumed): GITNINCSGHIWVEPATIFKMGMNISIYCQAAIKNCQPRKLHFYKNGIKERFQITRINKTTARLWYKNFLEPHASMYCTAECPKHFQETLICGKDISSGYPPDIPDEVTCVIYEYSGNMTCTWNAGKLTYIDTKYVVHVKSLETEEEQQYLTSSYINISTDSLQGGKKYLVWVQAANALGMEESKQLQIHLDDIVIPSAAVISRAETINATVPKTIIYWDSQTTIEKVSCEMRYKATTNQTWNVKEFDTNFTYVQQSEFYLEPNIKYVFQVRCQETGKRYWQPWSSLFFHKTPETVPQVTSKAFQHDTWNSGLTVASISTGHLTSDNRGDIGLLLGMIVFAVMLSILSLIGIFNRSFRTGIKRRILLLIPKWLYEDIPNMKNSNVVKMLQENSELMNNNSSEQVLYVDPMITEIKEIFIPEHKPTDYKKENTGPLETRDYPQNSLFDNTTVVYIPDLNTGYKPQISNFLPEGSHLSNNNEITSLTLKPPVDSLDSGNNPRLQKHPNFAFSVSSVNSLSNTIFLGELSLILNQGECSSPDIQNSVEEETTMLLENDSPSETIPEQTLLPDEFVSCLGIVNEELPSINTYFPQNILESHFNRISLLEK

Row | SIF t½ [1] | half-life at 20 μM [2] | SMILES | half-life at 20 μM (Stability in rat plasma) | half-life at 20 μM ([1]; read-out: SIF t½ (converted)) | half-life at 20 μM ([2]; cynomolgus monkey) | IC50 [3] | half-life at 20 μM [4]
1 | – | – | CC(=O)NCCCC[C@@H]1NC(=O)[C@H](Cc2c[nH]c3c(C)cccc23)NC(=O)[C@H]([C@@H](C)O)NC(=O)[C@H](CCC(N)=O)NC(=O)[C@@H](NC(=O)[C@@H](CCCNC(=N)N)NC(C)=O)CCSC[C@@H](C(=O)N[C@@H](Cc2ccc(OCCN)cc2)C(=O)N[C@@H](Cc2ccc3ccccc3c2)C(=O)N[C@@](C)(CCCCN)C(=O)N[C@@H](CCCCNC(C)=O)C(=O)N[C@@H](CC(N)=O)C(=O)N[C@H](CC(C)C)C(N)=O)NC1=O [compound 325] (Ac-[dR][Abu(4-yl)]QT[Trp(7-Me)]K(Ac)C[AEF][2Nal][αMeK]K(Ac)N[dL]-NH2; thioether 2-7) | > 24 h | 14 h | 22 h | 4.45 nM | > 24 h
2 | 24 h | > 24 h | COc1cccc2c(C[C@@H]3NC(=O)[C@H]([C@@H](C)O)NC(=O)[C@H](CC(N)=O)NC(=O)[C@@H](NC(C)=O)C(C)(C)SSC(C)(C)[C@@H](C(=O)N[C@@H](Cc4ccc(OCCN)cc4)C(=O)N[C@@H](Cc4ccc5ccccc5c4)C(=O)N[C@@](C)(CCCCN)C(=O)N[C@@H](CCCCNC(C)=O)C(=O)N[C@@H](CC(N)=O)C(=O)N[C@H](CCCCN)C(N)=O)NC(=O)[C@H](CCCNC(N)=O)NC3=O)c[nH]c12 [compound 300] (Ac-[Pen]NT[Trp(7-OMe)][Cit][Pen][AEF][2Nal][αMeK]K(Ac)N[dK]-NH2; disulfide 1-6) | > 24 h | – | – | > 1000 nM | > 24 h
3 | – | – | CC(=O)NCCCC[C@H](NC(=O)[C@](C)(CC(C)C)NC(=O)[C@H](Cc1ccc2ccccc2c1)NC(=O)[C@H](Cc1ccc(OCCN)cc1)NC(=O)[C@H]1NC(=O)[C@H](CCC(N)=O)NC(=O)[C@H](Cc2c[nH]c3c(C)cccc23)NC(=O)[C@H]([C@@H](C)O)NC(=O)[C@H](CC(N)=O)NC(=O)[C@@H](NC(C)=O)C(C)(C)SSC1(C)C)C(=O)N[C@@H](C(=O)NCCC(N)=O)[C@H](C)O [compound 218] | 1 h | – | > 24 h | 11 nM | > 24 h
4 | – | – | CC(=O)NCCCC[C@H](NC(=O)[C@](C)(CC(C)C)NC(=O)[C@H](Cc1ccc2ccccc2c1)NC(=O)[C@H](Cc1ccc(OCCN)cc1)NC(=O)[C@H]1NC(=O)[C@H](CCC(N)=O)NC(=O)[C@H](Cc2c[nH]c3c(C)cccc23)NC(=O)[C@H]([C@@H](C)O)NC(=O)[C@H](CC(N)=O)NC(=O)[C@@H](NC(C)=O)C(C)(C)SSC1(C)C)C(=O)N1CCC[C@H]1C(=O)NCCC(N)=O [compound 211] | – | – | > 24 h | 178 nM | 10 h
5 | – | – | CC(=O)NCCCC[C@@H]1NC(=O)[C@H](Cc2c[nH]c3c(C)cccc23)NC(=O)[C@H]([C@@H](C)O)NC(=O)[C@H](CC(N)=O)NC(=O)[C@@H](NC(C)=O)C(C)(C)SSC(C)(C)[C@@H](C(=O)N[C@@H](Cc2cncn2COCc2ccccc2)C(=O)N[C@@H](Cc2ccc3ccccc3c2)C(=O)N[C@@](C)(CCCCN)C(=O)N[C@@H](CCCCNC(C)=O)C(=O)N[C@@H](CC(N)=O)C(=O)N[C@H](CC(C)C)C(N)=O)NC1=O [compound 291] (Ac-[Pen]NT[Trp(7-Me)]K(Ac)[Pen][His(π-Bom)][2Nal][αMeK]K(Ac)N[dL]-NH2; disulfide 1-6) | > 24 h | – | > 24 h | > 1000 nM | > 24 h
6 | – | – | CC(=O)NCCCC[C@H](NC(=O)[C@](C)(CCCCN)NC(=O)[C@H](Cc1ccc2ccccc2c1)NC(=O)[C@H](Cc1ccc(OCCN)cc1)NC(=O)[C@H]1NC(=O)[C@H](CCC(N)=O)NC(=O)[C@H](Cc2c[nH]c3c(C)cccc23)NC(=O)[C@H]([C@@H](C)O)NC(=O)[C@H](CC(N)=O)NC(=O)[C@@H](NC(C)=O)C(C)(C)SSC1(C)C)C(=O)N[C@@H](CC(N)=O)C(=O)NCCC(N)=O [compound 267] | > 24 h | – | – | 0.506 nM | > 24 h
7 | – | – | CC(=O)NCCCC[C@H](NC(=O)[C@](C)(CC(C)C)NC(=O)[C@H](Cc1ccc2ccccc2c1)NC(=O)[C@H](Cc1ccc(OCCN)cc1)NC(=O)[C@H]1NC(=O)[C@H](CCCNC(N)=O)NC(=O)[C@H](Cc2c[nH]c3c(C)cccc23)NC(=O)[C@H]([C@@H](C)O)NC(=O)[C@H](CC(N)=O)NC(=O)[C@@H](NC(C)=O)C(C)(C)SSC1(C)C)C(=O)N[C@@H](CC(N)=O)C(=O)NCCC(N)=O [compound 227] (Ac-[Pen]NT[Trp(7-Me)][Cit][Pen][AEF][2Nal][αMeL]K(Ac)N[βAla]-NH2; disulfide 1-6) | – | – | > 24 h | 0.702 nM | > 24 h
8 | 24 h | > 24 h | CCCCC(=O)NCCCC[C@H](NC(=O)[C@](C)(CCCCN)NC(=O)[C@H](Cc1ccc2ccccc2c1)NC(=O)[C@H](Cc1ccc(OCCN)cc1)NC(=O)[C@H]1NC(=O)[C@H](CCCCNC(C)=O)NC(=O)[C@H](Cc2c[nH]c3c(C)cccc23)NC(=O)[C@H]([C@@H](C)O)NC(=O)[C@H](CC(N)=O)NC(=O)[C@@H](NC(C)=O)C(C)(C)SSC1(C)C)C(=O)N[C@@H](CC(N)=O)C(=O)N[C@H](CC(C)C)C(N)=O [compound 361] | > 24 h | – | – | – | > 24 h
9 | – | – | CC(=O)NCCCC[C@H](NC(=O)C1(NC(=O)[C@H](Cc2ccc3ccccc3c2)NC(=O)[C@H](Cc2ccc(OCCN)cc2)NC(=O)[C@H]2NC(=O)[C@H](CCC(N)=O)NC(=O)[C@H](Cc3c[nH]c4c(C)cccc34)NC(=O)[C@H]([C@@H](C)O)NC(=O)[C@H](CC(N)=O)NC(=O)[C@@H](NC(C)=O)C(C)(C)SSC2(C)C)CCNCC1)C(=O)N[C@@H](CC(N)=O)C(=O)NCCC(N)=O [compound 275] | > 24 h | – | 8 h | 2.17 nM | > 24 h
10 | 24 h | > 24 h | CC(=O)NCCCC[C@@H]1NC(=O)[C@H](Cc2c[nH]c3c(C)cccc23)NC(=O)[C@H]([C@@H](C)O)NC(=O)[C@H](CCC(C)C)NC(=O)[C@@H](NC(C)=O)C(C)(C)SSC(C)(C)[C@@H](C(=O)N[C@@H](Cc2ccc(OCCN)cc2)C(=O)N[C@@H](Cc2ccc3ccccc3c2)C(=O)N[C@@](C)(CCCCN)C(=O)N[C@@H](CCCCNC(C)=O)C(=O)N[C@@H](CC(N)=O)C(=O)N[C@H](CC(C)C)C(N)=O)NC1=O [compound 337] (Ac-[Pen][hLeu]T[Trp(7-Me)]K(Ac)[Pen][AEF][2Nal][αMeK]K(Ac)N[dL]-NH2; disulfide 1-6) | > 24 h | – | – | – | > 24 h

Row | SMILES | SIF t½ [1] | half-life at 20 μM [2] | half-life at 20 μM (Stability in rat plasma) | half-life at 20 μM ([1]; read-out: SIF t½ (converted)) | half-life at 20 μM ([2]; cynomolgus monkey) | IC50 [3] | half-life at 20 μM [4]
11 | CC(=O)NCCCC[C@H](NC(=O)[C@](C)(CCCCN)NC(=O)[C@H](Cc1ccc2ccccc2c1)NC(=O)[C@H](Cc1ccc(OCCN)cc1)NC(=O)[C@H]1NC(=O)[C@H](CCCCNC(=O)C(C)(C)N)NC(=O)[C@H](Cc2c[nH]c3c(C)cccc23)NC(=O)[C@H]([C@@H](C)O)NC(=O)[C@H](CC(N)=O)NC(=O)[C@@H](NC(C)=O)C(C)(C)SSC1(C)C)C(=O)N[C@@H](CC(N)=O)C(=O)N[C@H](CC(C)C)C(N)=O [compound 322] | 24 h | – | > 24 h | – | > 24 h | 0.648 nM | > 24 h
12 | CC(=O)NCCCC[C@H](NC(=O)[C@](C)(CCCCN)NC(=O)[C@H](Cc1ccc2ccccc2c1)NC(=O)[C@H](Cc1ccc(OCCN)cc1)NC(=O)[C@H]1NC(=O)[C@H](CCC(N)=O)NC(=O)[C@H](Cc2c[nH]c3c(C)cccc23)NC(=O)[C@H]([C@@H](C)O)NC(=O)[C@H](CC(N)=O)NC(=O)[C@@H](NC(C)=O)C(C)(C)SSC1(C)C)C(=O)N[C@@H](CC(N)=O)C(=O)NCCC(N)=O [compound 202] | – | 10 h | – | – | – | 1.1 nM | –
